A short description of one test: Hershberger Test. Type of test: in vivo.
Test [1] is described as follows: Pregnancy maintenance test. The class given is in vivo.
Test [2] concerns the target T1, progesterone receptor of the rabbit uterus (Oryctolagus cuniculus, UniProt P06186).
T1 construct: from tissue; host or cells: rabbit uterus
T1 sequence (P06186 1-930): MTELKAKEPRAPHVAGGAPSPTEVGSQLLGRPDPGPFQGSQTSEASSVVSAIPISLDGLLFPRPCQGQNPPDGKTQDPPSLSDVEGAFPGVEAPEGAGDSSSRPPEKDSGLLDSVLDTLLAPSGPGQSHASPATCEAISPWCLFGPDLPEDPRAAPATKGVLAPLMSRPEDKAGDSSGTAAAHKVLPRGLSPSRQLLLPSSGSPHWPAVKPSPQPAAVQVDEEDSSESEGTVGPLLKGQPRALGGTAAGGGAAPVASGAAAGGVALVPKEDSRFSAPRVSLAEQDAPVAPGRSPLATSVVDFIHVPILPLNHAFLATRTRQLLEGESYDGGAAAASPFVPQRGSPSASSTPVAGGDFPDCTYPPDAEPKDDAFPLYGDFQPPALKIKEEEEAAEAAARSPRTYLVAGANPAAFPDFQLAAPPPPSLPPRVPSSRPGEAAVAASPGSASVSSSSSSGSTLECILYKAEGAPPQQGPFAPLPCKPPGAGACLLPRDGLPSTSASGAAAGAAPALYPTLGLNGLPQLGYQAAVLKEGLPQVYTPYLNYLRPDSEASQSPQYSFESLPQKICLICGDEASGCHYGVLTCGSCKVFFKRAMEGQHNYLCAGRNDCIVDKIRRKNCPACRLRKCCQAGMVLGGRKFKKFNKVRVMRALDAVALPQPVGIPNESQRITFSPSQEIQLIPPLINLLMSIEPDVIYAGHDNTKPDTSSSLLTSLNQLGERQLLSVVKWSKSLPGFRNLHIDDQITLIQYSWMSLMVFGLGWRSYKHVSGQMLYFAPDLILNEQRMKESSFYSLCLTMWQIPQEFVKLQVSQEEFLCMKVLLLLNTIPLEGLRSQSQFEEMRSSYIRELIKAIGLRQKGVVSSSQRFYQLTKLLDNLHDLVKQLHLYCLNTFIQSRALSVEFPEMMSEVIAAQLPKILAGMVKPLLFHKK
Nature of the test: Binding to the progesterone receptor of the rabbit uterus (reference substance progesterone).

Test [3] deals with T2, androgen receptor of the rat prostate (Rattus norvegicus, UniProt P15207).
T2 construct: from tissue; host or cells: rat prostate
T2 sequence (P15207 1-902): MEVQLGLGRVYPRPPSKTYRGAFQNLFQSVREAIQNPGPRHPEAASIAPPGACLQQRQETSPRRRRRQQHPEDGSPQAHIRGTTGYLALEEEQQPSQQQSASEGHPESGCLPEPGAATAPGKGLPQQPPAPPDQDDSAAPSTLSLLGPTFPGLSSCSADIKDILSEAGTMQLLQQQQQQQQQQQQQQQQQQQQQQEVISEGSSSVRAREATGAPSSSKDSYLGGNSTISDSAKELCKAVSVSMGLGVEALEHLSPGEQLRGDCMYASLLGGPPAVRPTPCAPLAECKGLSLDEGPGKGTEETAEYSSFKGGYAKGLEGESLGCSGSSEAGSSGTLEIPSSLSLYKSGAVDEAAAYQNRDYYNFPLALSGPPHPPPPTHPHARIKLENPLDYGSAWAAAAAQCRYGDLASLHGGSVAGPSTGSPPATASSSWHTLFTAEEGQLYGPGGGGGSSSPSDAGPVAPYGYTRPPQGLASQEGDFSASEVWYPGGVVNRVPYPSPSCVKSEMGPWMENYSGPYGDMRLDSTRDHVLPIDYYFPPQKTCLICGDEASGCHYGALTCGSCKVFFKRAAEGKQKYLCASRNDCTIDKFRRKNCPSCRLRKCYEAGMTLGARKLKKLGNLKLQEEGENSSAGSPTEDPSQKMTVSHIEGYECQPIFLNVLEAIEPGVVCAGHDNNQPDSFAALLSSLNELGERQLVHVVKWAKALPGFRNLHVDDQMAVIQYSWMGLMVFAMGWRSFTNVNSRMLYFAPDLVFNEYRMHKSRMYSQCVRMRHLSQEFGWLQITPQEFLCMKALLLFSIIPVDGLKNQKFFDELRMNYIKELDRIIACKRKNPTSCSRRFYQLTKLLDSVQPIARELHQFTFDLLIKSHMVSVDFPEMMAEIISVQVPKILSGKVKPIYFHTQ
Nature of the test: Binding to the androgen receptor of the rat prostate (reference substance R 1881). Conditions: relative to reference substance R 1881 (17β-hydroxy-17α-methyl-estra-4,9,11-trien-3-one).

Experimental findings from US6534490B1, “Unsaturated 14, 15-cyclopropanoandrostanes, method for the production thereof and pharmaceutical preparations containing said compounds” (Jenapharm GmbH & Co. KG., priority 1998, dated 2003) are described below.

On to `C[C@]12CCC(=O)C=C1CC[C@@H]1[C@@H]2CC[C@]2(C)[C@@H](O)C[C@@H]3C[C@]312` [J 1193, 17β-hydroxy-14α,15α-methylen-androst-4-en-3-one], for which the androgenic activity result in the test “Hershberger Test” is given as “significant androgenic activity”. Also, in test [1], the gestagenic action entry is listed as “very little gestagenic action”. Besides, the “binding to the progesterone receptor” value in test [2] is “virtually no binding”. For the same molecule, in test [3], the “binding to the androgen receptor” value is recorded as 24±3%.
